Tests used:
[1] = biological target: T1, Nitric oxide synthase, inducible (Homo sapiens, UniProt P35228); assay: Binding affinity to iNOS with heme domain construct assessed as spectral binding constant by spectral assay
[2] = biological target: T1, Nitric oxide synthase, inducible; assay: Activity of iNOS assessed as increase in Kcat by indirect spectral assay relative to N'G-hydroxy-L-arginine

T1 sequence (P35228 whole entry, the tested form may be a part): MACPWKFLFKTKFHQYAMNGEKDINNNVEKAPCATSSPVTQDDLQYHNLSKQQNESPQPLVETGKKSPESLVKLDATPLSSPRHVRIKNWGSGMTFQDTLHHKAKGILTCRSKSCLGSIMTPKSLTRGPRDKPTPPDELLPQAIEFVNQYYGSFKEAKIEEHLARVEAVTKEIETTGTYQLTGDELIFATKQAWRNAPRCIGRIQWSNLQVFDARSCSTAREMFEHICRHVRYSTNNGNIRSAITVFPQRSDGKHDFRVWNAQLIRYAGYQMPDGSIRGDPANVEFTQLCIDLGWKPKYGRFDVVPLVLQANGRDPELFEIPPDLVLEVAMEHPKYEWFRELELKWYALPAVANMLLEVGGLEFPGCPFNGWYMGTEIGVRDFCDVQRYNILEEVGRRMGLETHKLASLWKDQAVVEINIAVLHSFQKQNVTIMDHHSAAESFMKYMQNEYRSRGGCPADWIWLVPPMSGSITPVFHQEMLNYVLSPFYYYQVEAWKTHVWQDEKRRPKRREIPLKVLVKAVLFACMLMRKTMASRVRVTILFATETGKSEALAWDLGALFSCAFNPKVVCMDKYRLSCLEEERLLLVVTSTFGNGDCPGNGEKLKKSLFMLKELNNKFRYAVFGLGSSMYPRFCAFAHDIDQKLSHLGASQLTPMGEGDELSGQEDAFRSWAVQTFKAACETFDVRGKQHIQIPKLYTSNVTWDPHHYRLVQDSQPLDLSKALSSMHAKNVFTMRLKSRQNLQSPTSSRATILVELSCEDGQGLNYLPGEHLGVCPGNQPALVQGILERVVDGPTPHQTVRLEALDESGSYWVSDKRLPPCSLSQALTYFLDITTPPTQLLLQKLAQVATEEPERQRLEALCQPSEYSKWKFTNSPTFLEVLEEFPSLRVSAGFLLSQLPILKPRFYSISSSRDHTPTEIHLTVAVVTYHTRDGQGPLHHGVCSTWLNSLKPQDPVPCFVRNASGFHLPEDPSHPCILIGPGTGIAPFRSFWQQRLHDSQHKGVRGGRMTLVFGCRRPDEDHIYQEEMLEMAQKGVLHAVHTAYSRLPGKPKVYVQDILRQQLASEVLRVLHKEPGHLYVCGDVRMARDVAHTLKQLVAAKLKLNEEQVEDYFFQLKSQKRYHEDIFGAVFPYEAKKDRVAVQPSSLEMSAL

Q: N/C(=N\O)NCC(F)(F)C[C@H](N)C(=O)O was tested. Which Kd [1] did it give?
A: Its Kd is 116 µM.

Q: And the Activity [2]?
A: Its Activity is 30%.

Q: For N=C(N)NCC(F)(F)C[C@H](N)C(=O)O, which Kd [1] is on record?
A: The Kd was 3100 µM.

Q: What about the Activity [2] of the same compound?
A: Its Activity is 10%.

Q: With N=C(NO)NCCC[C@H](N)C(=O)O as the compound, how does the Kd [1] read?
A: Its Kd is 5.1 µM.
